Experiment [1] is described as follows: ultraviolet-induced erythema blocking test, oral (modified Winder method). Type of experiment: in vivo, guinea pig (male albino). The note with it: Cavia porcellus, guinea pig, weighted scores 1.0-2.5 h after UV, dose which provides 50% inhibition. How it is done:
The compounds of the present invention were evaluated for anti-inflammatoryactivity by the ultraviolet-induced erythema blocking test. The test procedures were a modification of the Winder method (Winder, C. V.; Wax, J.; Burr, V.; Been, M.; and Posiere, C. E.: A Study of Pharmacological Influences on Ultraviolet Erythema in Guinea Pigs. Arch. Int. Pharmacodyn. 116: 261, 1958). Male albino guinea pigs weighing 240-300 gm. were used. The hair on the back was clipped and chemically depilated 15-18 hours before each experiment. The animals were fasted overnight, and on the day of the experiment, were randomized and placed in clear plastic partitioned holders 10×20 cm. wide and 15 cm. high.
The compounds to be tested were suspended in 1% methyl cellulose in water, utilizing a tissue homogenizer. The suspensions were administered orally in a volume of 2.0 ml./kg. of body weight. Control animals received an equal amount of the vehicle.
The source of ultraviolet light was a Hanovia lamp (Kromayer-Model 10). A notebook reinforcement ring was placed upon the lens of the lamp to provide an area of contrast for grading purposes. The lens was then placed in contact with the skin of the guinea pig's back. Exposure time to UV was for a period of 4 seconds. Beginning one hour after exposure and thereafter at half-hour intervals for another 11/2 hours, the degree of resulting erythema was graded by an arbitrary scoring system based upon the degree of contrast and redness formed. Anti-inflammatory agents delay the development of the erythema and have their greatest effect at the initial grading periods. The scores were, therefore, weighted by factors of 4, 3, 2, and 1 at the 1.0, 1.5, 2.0, and 2.5 hour scoring times, respectively. The erythema was graded as follows:
Total scores from each treatment group of four guinea pigs were compared to the scores of the control group. The percent inhibition was calculated as follows: [formula] In the case of compounds showing inhibition, retesting was carried out at a plurality of doses to enable calculation of an ED50 for each such compound. "ED50 " designates that dose which provides 50% inhibition. Calculation of the ED50 was either by a standard linear regression method or by estimation from a dose-response curve of three or more points. The compounds so tested and their ED50 s were as follows: […]

The nature of experiment [2]: carrageenin-induced hind paw inflammation. Type of experiment: in vivo. The conditions noted are these: Rattus norvegicus. As to the method:
Representative compounds were also evaluated for anti-inflammatory activity in the test method described by C. A. Winter at 111 Proc. Soc. Exp. Biol. Med., 544 (1962). In this method, inflammation is created by injecting carrageenin into the hind paw of rats. Test compounds are administered prior to injection to determine percent inhibition of the subsequent inflammation, in comparison with control animals.
On the technique in general: The carrageenan paw model is a standard test of acute inflammation.

Experiment [3] in a line: analgesic activity, acetic acid-induced writhing. It is filed as in vivo, mouse (albino male). The conditions noted are these: mouse, p.o., dose reducing writhing frequency by 50%; 30, 90, 180 minutes after administration. As to the method:
Representative compounds were also evaluated for analgesic activity. The evaluation was conducted by using acetic acid-induced writhing in mice as the pain model. Clinically effective analgesis are effective when tested in this model: see Koster et al., "Acetic Acid for Analgesic Screening," 18 Fed. Proc. 412 (1959).
In a method similar to that reported by Koster et al., standard strain albino male mice weighing 20-22 grams were fasted overnight. The respective compound or vehicle (as control) was administered by gastric lavage (p.o.). Each compound was administered in an aqueous suspension of 1% methylcellulose in water. […] At 30, 90, and 180 minutes after administration, writhing was induced by the intraperitoneal administration of 55 mg./kg. of acetic acid (0.55%). Each treatment group consisted of 5 mice and separate groups were examined at each observation time. The total number of writhes for the treatment group were counted in a 10-minute observation period starting 5 minutes after the acetic acid administration. The treatment totals were compared to controls and a percent inhibition calculated as follows: [formula] […] An ED50, which represented the dose that would reduce the writhing frequency by 50%, was estimated from a dose-reponse curve of three or more points. A dose range was reported if only two points were availale for the dose response curve and they bracketed the 50% level. If data was available at 100 mg./kg., only, then the estimated ED50 was reported simply as less than 100 (<100).

Experiment [4] is described as follows: adjuvant-induced arthritis test (paw volume). The conditions noted are these: rat, oral, dose 25 (unit not given). Type of experiment: in vivo, rat (male albino).

Bounds are passed on as bounds.

As for `C#Cc1cccc(Oc2ccccc2F)c1` [(3-(2-fluorophenoxy)phenyl)acetylene, (3-(2-Fluorophenoxy)phenyl)acetylene], in experiment [1], the ED50 – broadly, the dose that gives a 50% effect, or the effect in half of the subjects – was determined as 12 mg/kg. For the same compound, in experiment [2], testing at 50 mg/kg gave an inhibition in vivo of 32%.
In turn, `C#Cc1ccc(-c2c(F)cccc2F)cc1` [(4-(2,6-difluorophenyl)phenyl)acetylene, (4-(2,6-Difluorophenyl)phenyl)acetylene] displayed an ED50 in experiment [1] of 12 mg/kg. Also, in experiment [2], the inhibition in vivo (commonly the percentage by which the read-out fell short of the control) at 3 mg/kg was found to be 7%, 10 mg/kg produced 34% inhibition in vivo, the inhibition in vivo at 30 mg/kg came out at 37% and at 50 mg/kg the inhibition in vivo was 49%. In addition, the “Estimated ED50” value in experiment [3] was below 100 mg/kg.
`C#Cc1ccc(-c2ccccc2)c(F)c1` [(3-fluoro-4-phenylphenyl)acetylene, (3-Fluoro-4-phenylphenyl)acetylene] returned an ED50 in experiment [1] of 0.5 mg/kg. Moreover, in experiment [3], the “Estimated ED50” value was 10 mg/kg.
For `C#Cc1cccc(Oc2ccccc2)c1` [(3-phenoxyphenyl)acetylene, (3-Phenoxyphenyl)acetylene], the ED50 in experiment [1] turned out to be 13 mg/kg. In experiment [2], this compound returned an inhibition in vivo at 10 mg/kg of 7%. Besides, the “Estimated ED50” value in experiment [3] is below 100 mg/kg.
As to `C#Cc1ccc(-c2cccc(F)c2)cc1` [(4-(3-fluorophenyl)phenyl)acetylene, (4-(3-Fluorophenyl)phenyl)acetylene], the 50% effect level in experiment [1] (ED50) was put at a dose of 3 mg/kg. For the same compound, in experiment [2], testing at 10 mg/kg gave an inhibition in vivo of 17%. In experiment [3], the “Estimated ED50” value was 35 mg/kg.
For `C#Cc1ccc(-c2ccccc2C)cc1` [(4-(o-tolyl)phenyl)acetylene, (4-(o-Tolyl)phenyl)acetylene], it took a dose of 0.9 mg/kg to reach the 50% effect level in experiment [1] (ED50). Further, in experiment [2], the inhibition in vivo at 3 mg/kg is 16%, the inhibition in vivo at 10 mg/kg was determined as 6%, testing at 30 mg/kg gave an inhibition in vivo of 53% and at 50 mg/kg the inhibition in vivo was 48%. Moreover, the “Estimated ED50” value in experiment [3] was 35 mg/kg.
The compound `C#Cc1ccc(Oc2ccccc2F)cc1` [(4-(2-fluorophenoxy)phenyl)acetylene, (4-(2-Fluorophenoxy)phenyl)acetylene] returned an ED50 in experiment [1] of 16.5 mg/kg. In experiment [2], the inhibition in vivo at 3 mg/kg was found to be 28%, 10 mg/kg produced 45% inhibition in vivo and the inhibition in vivo at 30 mg/kg is 68%. Besides, in experiment [3], the “Estimated ED50” value is below 100 mg/kg.
Compound `C#Cc1ccc(-c2ccc(F)cc2F)cc1` [(4-(2,4-difluorophenyl)phenyl)acetylene, (4-(2,4-Difluorophenyl)phenyl)acetylene] yielded an ED50 in experiment [1] of 4 mg/kg. The compound further gave an inhibition in vivo at 25 mg/kg in experiment [2] of 31%. The “Estimated ED50” value in experiment [3] is 4 mg/kg.
In experiment [1], `C#Cc1ccc(C2CCCCC2)c(Cl)c1` [(3-chloro-4-cyclohexylphenyl)acetylene, (3-Chloro-4-cyclohexylphenyl)acetylene] registered an ED50 of 1 mg/kg. Moreover, in experiment [3], the “Estimated ED50” value was below 100 mg/kg.
With `C#Cc1ccc(-c2cc(F)ccc2F)cc1` [(4-(2,5-difluorophenyl)phenyl)acetylene, (4-(2,5-Difluorophenyl)phenyl)acetylene], the ED50 in experiment [1] is 4.4 mg/kg. This compound also had an inhibition in vivo at 25 mg/kg in experiment [2] of 43%. In experiment [3], the “Estimated ED50” value was 10 mg/kg.
The compound `C#Cc1ccc(-c2ccccc2Cl)cc1` [(4-(2-chlorophenyl)phenyl)acetylene, (4-(2-Chlorophenyl)phenyl)acetylene] gave an ED50 in experiment [1] of 0.8 mg/kg. The compound further yielded an inhibition in vivo at 50 mg/kg in experiment [2] of 52%. Besides, in experiment [3], the “Estimated ED50” value is 20 to 100 mg/kg.
On the same counts, the results for `C#Cc1cccc(-c2ccccc2)c1` [3-biphenylylacetylene, 3-Biphenylylacetylene] are 7 mg/kg, 32% and 50 to 100 mg/kg.
The compound `C#Cc1ccc(F)c(-c2ccccc2F)c1` [(4-Fluoro-3-(2-fluorophenyl)phenyl)acetylene] had an ED50 in experiment [1] of 23 mg/kg. In experiment [2], this compound displayed an inhibition in vivo at 3 mg/kg of 13%, an inhibition in vivo at 10 mg/kg of 23%, an inhibition in vivo at 30 mg/kg of 43% and an inhibition in vivo at 50 mg/kg of 45%.
For `C#Cc1cc(C)c(Oc2ccccc2)c(C)c1` [(3,5-dimethyl-4-phenoxyphenyl)acetylene, (3,5-Dimethyl-4-phenoxyphenyl)acetylene], it took a dose of 11 mg/kg to reach the 50% effect level in experiment [1] (ED50). The compound also displayed an inhibition in vivo at 50 mg/kg in experiment [2] of 29%. For the same compound, the “Estimated ED50” value in experiment [3] was below 100 mg/kg.
For (2-(2,5-difluorophenyl)phenyl)acetylene, the “Percent Inhibition of Volume Increase, Day 7” value in experiment [4] (Day 7) was determined as 38%. The “Percent Inhibition of Volume Increase, Day 14” value in experiment [4] (Day 14) was 15%.
`C#Cc1ccc(-c2ccccc2)cc1C` [(2-methyl-4-phenylphenyl)acetylene] returned an ED50 in experiment [1] of 20 mg/kg. The “Estimated ED50” value in experiment [3] is 60 mg/kg.
As to `C#Cc1ccc(-c2ccccc2)c(C)c1` [(3-methyl-4-phenylphenyl)acetylene, (3-Methyl-4-phenylphenyl)acetylene], it took a dose of 0.09 mg/kg to reach the 50% effect level in experiment [1] (ED50). Also, in experiment [2], the inhibition in vivo at 3 mg/kg is 37%, the inhibition in vivo at 10 mg/kg is 56%, the inhibition in vivo at 30 mg/kg was 56% and the inhibition in vivo at 50 mg/kg was determined as 66%. Besides, the “Estimated ED50” value in experiment [3] was 50 mg/kg.
As for `C#Cc1ccc(-c2ccccc2)c(OC)c1` [(3-methoxy-4-phenylphenyl)acetylene, (3-Methoxy-4-phenylphenyl)acetylene], in experiment [1], the ED50 stood at 0.6 mg/kg.
As for `C#Cc1ccc(-c2ccccc2)cc1OC` [(2-methoxy-4-phenylphenyl)acetylene, (2-Methoxy-4-phenylphenyl)acetylene], it took a dose of 39 mg/kg to reach the 50% effect level in experiment [1] (ED50). The compound further came in with an inhibition in vivo at 1 mg/kg in experiment [2] (1 mg./kg.) of 25%. In addition, in experiment [2], the inhibition in vivo at 10 mg/kg amounted to 7% and testing at 50 mg/kg gave an inhibition in vivo of 51%.
In the case of `C#Cc1ccc(Oc2ccccc2)c(C)c1` [(3-methyl-4-phenoxyphenyl)acetylene, (3-Methyl-4-phenoxyphenyl)acetylene], the ED50 in experiment [1] stood at 10 mg/kg. In experiment [2], this compound gave an inhibition in vivo at 10 mg/kg of 16%. In addition, the “Estimated ED50” value in experiment [3] was below 100 mg/kg.
In experiment [1], `C#Cc1ccc(Oc2ccccc2)cc1C` [(2-methyl-4-phenoxyphenyl)acetylene, (2-Methyl-4-phenoxyphenyl)acetylene] had an ED50 of 8 mg/kg. Further, at 25 mg/kg the inhibition in vivo in experiment [2] was 33%. The “Estimated ED50” value in experiment [3] was below 100 mg/kg.
For the compound `C#Cc1ccc(OCCCC)cc1C` [(2-methyl-4-n-butoxyphenyl)acetylene, (2-Methyl-4-n-butoxyphenyl)acetylene], the 50% effect level in experiment [1] (ED50) was put at a dose of 35 mg/kg. In experiment [2], at 25 mg/kg the inhibition in vivo was 9%.

The values above are taken from US4301313A, “Halogenated ethynyl biphenyls” (Eli-Lilly and Company, priority 1974, dated 1981).
